Where no end group is shown, it is not given here.
Assays:
W. confusa CCUG30113 = assay: Soft-agar overlay screen of peptide-expressing yeast (BY4742)
[1] = system: P. pentosaceus NCCB 31016; assay: as above; details: for Inhibition, P. pentosaceus NCCB 31016: soft-agar overlay, peptide-expressing yeast
L. reuteri CCUG 32624 = assay: as above
E. faecium NCCB 86023 = assay: as above
L. lactis NCCB 26066 = assay: as above
W. confusa CCUG30943 = assay: as above
[2] = system: L. delbrueckii CCUG 34222; assay: as above
L. fermentum NCCB 46038 [3] = assay: Soft-agar overlay assay of S. cerevisiae BY4742 secreting persulcatusin variants from pHVXU plasmids; details: for Growth inhibition zones of L. fermentum: FIG. 7, BY4742 with pHVXU plasmids, 30° C., 1 day
L. fermentum NCCB 46038 [4] = assay: Soft-agar overlay screen of peptide-expressing yeast (BY4742)
L. fermentum CCUG 72619 = format: cell-based, Lactobacillus fermentum
P. pentosaceus = assay: Small-scale mock ethanol fermentation contaminated with P. pentosaceus; format: cell-based, Pediococcus pentosaceus; details: 72 hours; contamination OD600 0.00005-0.05; virginiamycin 2 mg/L
Experimental: (§1) Small-scale mock ethanol fermentations were carried out in 2 mL microcentrifuge tubes with a venting hole in the cap made with a 30 gauge needle. Starter cultures of yeast were grown in YPD at 30° C. with agitation. Starter cultures of L. fermentum CCUG 72619 were grown in MRS at 37° C. without agitation. […] . Control fermentations contained 2 mg/L virginiamycin. The fermentations were incubated at 30° C. without agitation for 72 hours and then analyzed by HPLC.
(§2) . M2 wild-type with and without virginiamycin, M2-pPedA, M2-pPedA-K1A, M2-pPedA-K1A/T22A, and M2-pPedA-K1T were compared (FIGS. 14A-14D, 15A-15D). […] . The pediocin-expressing strains were not effective at completely preventing the lactic acid production by L. delbrueckii or P. pentosaceus. […] .

L. delbrueckii = assay: Small-scale mock ethanol fermentation contaminated with L. delbrueckii; format: cell-based, Lactobacillus delbrueckii; details: 72 hours; contamination OD600 0.00005-0.05; virginiamycin 2 mg/L
Experimental: as §1, §2

Lactobacillus casei = assay: Soft-agar overlay screen of peptide-expressing yeast, other lactic acid bacteria; format: cell-based; details: sometimes weak
Lactobacillus amylovorus = assay: as above; format: cell-based; details: sometimes weak
[5] = system: P. pentosaceus NCCB 31016; assay: Soft-agar overlay assay of S. cerevisiae M2 strain expressing pediocin PA-1 variants; details: S. cerevisiae M2 transformants; compared to wild-type pediocin PA-1
[6] = system: L. delbrueckii CCUG 34222T; assay: as above; details: S. cerevisiae M2 transformants; compared to wild-type pediocin PA-1
Pediococcus damnosus = assay: Soft-agar overlay screen of peptide-expressing yeast, other lactic acid bacteria; format: cell-based
Lactobacillus plantarum = assay: as above; format: cell-based
[7] = system: Lactobacillus delbrueckii subsp. delbrueckii; assay: as above; format: cell-based
Lactobacillus brevis = assay: as above; format: cell-based
Pediococcus acidilactici = assay: as above; format: cell-based
[8] = system: Lactococcus lactis subsp. cremoris; assay: as above; format: cell-based
[9] = system: Leuconostoc mesenteroides subsp. mesenteroides; assay: as above; format: cell-based

Row | Substance | Inhibition, W. confusa CCUG30113 (W. confusa CCUG30113) | Inhibition, P. pentosaceus NCCB 31016 [1] | Inhibition, L. reuteri CCUG 32624 (L. reuteri CCUG 32624) | Inhibition, E. faecium NCCB 86023 (E. faecium NCCB 86023) | Inhibition, L. lactis NCCB 26066 (L. lactis NCCB 26066) | Inhibition, W. confusa CCUG30943 (W. confusa CCUG30943) | Inhibition, L. delbrueckii CCUG 34222 [2] | Inhibition, L. fermentum NCCB 46038 (L. fermentum NCCB 46038 [4]) | other results
1 | Wild-type persulcatusin [Wild-type persulcatusin [Ixodes persulcatus]] | + | − | − | − | − | − | − | + | Growth inhibition zones of L. fermentum (L. fermentum NCCB 46038 [3]): Growth inhibition zones of L. fermentum are observable
2 | virginiamycin |  |  |  |  |  |  |  |  | Variability in residual glucose (L. fermentum CCUG 72619): tended to be reduced; Lactic acid production by P. pentosaceus (P. pentosaceus): effective at preventing the lactic acid production; Lactic acid production by L. delbrueckii (L. delbrueckii): effective at preventing the lactic acid production
3 | Engineered persulcatusin with [Mutation S7-192-1, Engineered persulcatusin with [F6L/G9D/R13S/H14Q]] | + | − | + | − | − | + | − | + | Antibacterial activity against Lactobacillus casei (Lactobacillus casei): showed some antibacterial activity; Antibacterial activity against Lactobacillus amylovorus (Lactobacillus amylovorus): showed some antibacterial activity; Growth inhibition zones of L. fermentum (L. fermentum NCCB 46038 [3]): significantly bigger zones; Increase in Activity (L. fermentum NCCB 46038 [3]; random mutagenesis clones of persulcatusin, increase of growth inhibition zones): ++++
4 | Enterocin A | − | + | − | − | + | − | + | − | 
5 | Leucocin C | − | + | − | + | + | − | + | − | 
6 | Coagulin A | − | + | − | + | + | − | + | − | 
7 | Ubericin A | − | + | − | − | + | − | + | − | 
8 | Hiracin JM79 | − | − | − | + | − | − | − | − | 
9 | Engineered pediocin PA-1 with [K20A] (KYYGNGVTCGKHSCSVDWGAATTCIINNGAMAWATGGHQGNHKC; ends and bridges not checked; cysteine pairing not given here) [pediocin PA-1 K20A] |  |  |  |  |  |  |  |  | Growth inhibition zone (halo) of P. pentosaceus [5]: Growth inhibition zones of P. pentosaceus were observable; Growth inhibition zone (halo) of L. delbrueckii [6]: Growth inhibition zones of L. delbrueckii were observable
10 | Engineered pediocin PA-1 with [pediocin PA-1 K1A/G19A, Engineered pediocin PA-1 with [K1A/G19A]] |  |  |  |  |  |  |  |  | Growth inhibition zone (halo) of P. pentosaceus [5]: Growth inhibition zones of P. pentosaceus and L. delbrueckii were observable; Growth inhibition zone (halo) of L. delbrueckii [6]: Growth inhibition zones of P. pentosaceus and L. delbrueckii were observable
11 | Bactofencin A | − | + | − | + | + | − | + | + | 
12 | Pediocin PA-1 from [Pediococcus acidilactici] (KYYGNGVTCGKHSCSVDWGKATTCIINNGAMAWATGGHQGNHKC; listed as Pediococcus acidilactici) | − | + | − | + | + | − | + |  | Growth inhibition zones of P. pentosaceus ([1]; FIG. 7, BY4742 with pHVXU-pedA, 30° C., 1 day): Growth inhibition zones of P. pentosaceus are observable; Antibacterial activity against Pediococcus damnosus (Pediococcus damnosus): showed antibacterial activity; Antibacterial activity against Lactobacillus plantarum (Lactobacillus plantarum): showed antibacterial activity; Antibacterial activity against Lactobacillus delbrueckii subsp. delbrueckii [7]: showed antibacterial activity; Antibacterial activity against Lactobacillus brevis (Lactobacillus brevis): showed antibacterial activity; Antibacterial activity against Lactobacillus casei (Lactobacillus casei): showed some antibacterial activity; Antibacterial activity against Pediococcus acidilactici (Pediococcus acidilactici): showed antibacterial activity; Antibacterial activity against Lactobacillus amylovorus (Lactobacillus amylovorus): showed some antibacterial activity; Antibacterial activity against Lactococcus lactis subsp. cremoris [8]: showed antibacterial activity; Antibacterial activity against Leuconostoc mesenteroides subsp. mesenteroides [9]: showed antibacterial activity
